Data reported in patent US20240382608A1, “NOVEL LIGAND-DRUG CONJUGATE OF CAMPTOTHECIN ANALOGS, INTERMEDIATES, PHARMACEUTICAL COMPOSITION AND APPLICATION THEREOF” (SHANGHAI MICURX PHARMACEUTICAL CO., LTD., priority 2023, published 2024).
Read-outs that look alike come from different tables or passages of the source.

Experiments:
Rat PK study = type: in vivo; conditions: Sprague-Dawley (SD)
Procedure: Male SD rat, 180-200 g (BK lab. Animal Ltd.), 3 Rats/group. Blood samples were collected by orbital vein after IV administration 1 mg/kg dosage at 0.083, 0.5, 1, 2, 4, and 8 h into heparin-containing tubes, centrifugated at 10000 rpm for 3 min to get plasma. All samples were stored at −20° C. until they were sent to Suzhou Chengyao Biotech Co., Ltd. for analysis.

A549 = assay: In vitro cytotoxicity test of camptothecin payloads (CellTiter-Glo); type: cell-based; conditions: Homo sapiens, A549, 72 h
Procedure: (§1) Human lung adenocarcinoma cell line A549, NCI-N87, and SK-BR-3 were used to evaluate the cytotoxicity of small molecule fragment of the present invention. These cells were seeded to a 96-well plate at 2000 cells per well.

NCI-N87 = assay: as above; type: cell-based; conditions: Homo sapiens, NCI-N87, 72 h, read-out: NCI-N87 Cytotoxicity IC50 (nM)
Procedure: as §1

SK-BR-3 = assay: as above; type: cell-based; conditions: Homo sapiens, SK-BR-3, 72 h, read-out: SK-BR-3 Cytotoxicity IC50 (nM)
Procedure: as §1

[1] = male, rat, in vivo, iv, 1 mg/kg
[2] = read-out: A549 Cytotoxicity IC50 (nM)

Compound | IC50 (A549; [2]) [nM] | IC50 (NCI-N87) [nM] | IC50 (SK-BR-3) [nM] | also measured
CC[C@@]1(O)C(=O)OCc2c1cc1n(c2=O)Cc2c-1nc1ccc(N)c3c1c2C=CS3 [Example 1, (S)-4-amino-9-ethyl-9-hydroxy-12,15-dihydro-13H-pyrano[3′,4′:6,7]indolizino[1,2-b]thiopyrano[4,3,2-de]quinoline-10,13(9H)-dione] | 10.7 | 5.2 | 38.6 | MRT inf (Rat PK study; [1]): 12 min; Vd (Rat PK study; [1]): 0.9 L/kg; half-life (Rat PK study; [1]): 18 min
CC[C@@]1(O)C(=O)OCc2c1cc1n(c2=O)Cc2c-1nc1cc(F)c(N)c3c1c2C=CS3 [Example 2, (S)-4-amino-9-ethyl-5-fluoro-9-hydroxy-12,15-dihydro-13H-pyrano[3′,4′:6,7]indolizino[1,2-b]thiopyrano[4,3,2-de]quinoline-10,13(9H)-dione] | 0.8 | – | – | –
CC[C@@]1(O)C(=O)OCc2c1cc1n(c2=O)Cc2c-1nc1ccc(NC(=O)CO)c3c1c2C=CS3 [Example 13] | 26.4 | 21.7 | 52.3 | –
CC[C@@]1(O)C(=O)OCc2c1cc1n(c2=O)Cc2c-1nc1cc(F)c(C)c3c1c2[C@@H](NC(=O)CO)CC3 [drawing 109] | 163 | 26 | 802 | –
CC[C@@]1(O)C(=O)OCc2c1cc1n(c2=O)Cc2c-1nc1ccc(N)c3c1c2CCS3 [drawing 110] | – | – | – | IC50 (A549; cell viability after 3 days, 2000 cells per well, read-out: A549 Cytotoxicity IC50): 22.3 nM
CC[C@@]1(O)C(=O)OCc2c1cc1n(c2=O)Cc2c-1nc1cc(F)c(C)c3c1c2[C@@H](NC(=O)CO)CC3 [drawing 111] | – | – | – | MRT inf (Rat PK study; in vivo, male SD rat, IV 1 mg/kg, plasma, read-out: MRT0-∞): 30 min; half-life (Rat PK study; in vivo, male SD rat, IV 1 mg/kg, plasma, read-out: T1/2 (converted)): 30 min; Vd (Rat PK study; in vivo, male SD rat, IV 1 mg/kg, plasma, read-out: Vss): 20.6 L/kg
CC[C@@]1(O)C(=O)OCc2c1cc1n(c2=O)Cc2c-1nc1ccc(N)c3c1c2CCS3 [drawing 112] | – | – | – | MRT inf (Rat PK study; male SD rat, IV 1 mg/kg, plasma, read-out: MRT0-∞): 114 min; half-life (Rat PK study; male SD rat, IV 1 mg/kg, plasma, read-out: T1/2 (converted)): 126 min; Vd (Rat PK study; male SD rat, IV 1 mg/kg, plasma, read-out: Vss): 7.2 L/kg
